Experiments:
Experiment in all cases: -log10 GI50 (growth inhibition 50%) (-log10(M)); higher = more potent growth inhibition
[1] = system: 184B5
Outline: (§1)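 Breast cancer cell lines were treated with each compound for 72 hours at nine doses in 1:5 serial dilution, in triplicate, and luminescence was read against a time-zero plate. A Gompertz curve was fitted to the dose-response data by nonlinear least squares to obtain GI50, the molar concentration giving the set level of growth inhibition, which is reported as its negative logarithm. The logarithm is base 10, and values equal to the top dose carry a < qualifier.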

[2] = system: 600MPE
Outline: as §1

[3] = system: AU565
Outline: as §1

[4] = system: BT474
Outline: as §1

[5] = system: BT549
Outline: as §1

[6] = system: HCC1395
Outline: as §1

[7] = system: HCC1419
Outline: as §1

[8] = system: HCC1569
Outline: as §1

[9] = system: HCC2185
Outline: as §1

[10] = system: LY2
Outline: as §1

[11] = system: MCF12A
Outline: as §1

[12] = system: MDAMB231
Outline: as §1

[13] = system: MDAMB361
Outline: as §1

[14] = system: MDAMB415
Outline: as §1

[15] = system: SUM1315MO2
Outline: as §1

[16] = system: SUM159PT
Outline: as §1

[17] = system: SUM185PE
Outline: as §1

[18] = system: SUM229PE
Outline: as §1

[19] = system: SUM52PE
Outline: as §1

[20] = system: T47D_KBluc
Outline: as §1

SMILES | -log10 GI50 [1] | -log10 GI50 [2] | -log10 GI50 [3] | -log10 GI50 [4] | -log10 GI50 [5] | -log10 GI50 [6] | -log10 GI50 [7] | -log10 GI50 [8] | -log10 GI50 [9] | -log10 GI50 [10] | -log10 GI50 [11] | -log10 GI50 [12] | -log10 GI50 [13] | -log10 GI50 [14] | -log10 GI50 [15] | -log10 GI50 [16] | -log10 GI50 [17] | -log10 GI50 [18] | -log10 GI50 [19] | -log10 GI50 [20]
CC(=O)NCC(=O)N1[C@@H]2CC[C@H]1c1ccc(Nc3ncc(C(F)(F)F)c(NC4CCC4)n3)cc12 | 5.48 | 6.03 | 5.57 | 5.22 | 5.47 | 5.96 | 5.19 | 6.07 | 4.98 | 5.5 | 5.59 | 5.53 | 5.23 | 5.18 | 6.12 | 6.37 | 6.63 | 6.1 | 7.57 | 5.4
CCC[C@H](N[C@H]1CCc2cc(F)cc(F)c2C1)C(=O)Nc1cn(C(C)(C)CNCC(C)(C)C)cn1 | 4.86 | < 4.18 | 4.98 | 4.37 | < 4.18 | < 4.18 | < 4.18 | 4.27 | 4.99 | 4.68 | < 4.18 | < 4.18 | 4.41 | 4.9 | 4.65 | < 4.18 | 4.84 | < 4.18 | 5.24 | < 4.18
CNC(=O)c1c(F)cccc1Nc1nc(Nc2cc3c(cc2OC)CCN3C(=O)CN(C)C)nc2[nH]ccc12 | 6.32 | 6.49 | 5.63 | 5.08 | 5.21 | 5.33 | 5.19 | 5.12 | 5.39 | 6.27 | 5.74 | 5.32 | 4.84 | 5.32 | 5.1 | 5.47 | 5.48 | 6.2 | 5.68 | 5.13
COc1cc2c(Nc3ccc(NC(=O)c4ccccc4)cc3)ncnc2cc1OCCCN1CCOCC1 | < 4.3 | < 4 | 5.82 | 4.29 | 5.47 | 5.3 | 5.32 | 5.69 | 5.96 | – | 5.12 | < 4.3 | 5.41 | 5.45 | < 4.3 | 6.14 | 4.5 | 5.93 | 5.46 | < 4.3
COc1ccc(-c2cc3c(C)nc(N)nc3n([C@H]3CC[C@H](OCCO)CC3)c2=O)cn1 | 6.65 | 7.32 | 7.51 | 6.91 | 6.38 | 7.02 | 7.58 | 6.78 | 7.12 | 7.04 | 6.39 | 6.35 | 7.36 | 7.08 | 7.06 | 6.73 | 6.77 | 6.25 | 7.26 | 7.25
COc1ncc(-c2ccc3nccc(-c4ccnnc4)c3c2)cc1NS(=O)(=O)c1ccc(F)cc1F | 8.23 | 8.22 | 8.1 | 8.36 | 7.32 | 7.31 | 9.48 | 7.75 | 8.04 | 7.94 | 8.09 | 6.37 | 8.82 | 5.86 | 8.02 | 7.63 | – | 8.59 | 8.46 | 7.71
Cn1ncc(Cl)c1-c1cc(C(=O)N[C@H](CN)Cc2ccc(F)c(F)c2)oc1Cl | – | – | 6.09 | 7.16 | 5.45 | – | 7.72 | 6.55 | > 9.77 | 6.62 | 5.57 | 5.09 | 6.65 | 7.24 | 5.01 | 6.28 | 6.28 | 5.59 | 6.3 | 6.48
Nc1[nH]nc2nnc(-c3c(-c4ccccc4)nn4ccccc34)cc12 | 4.89 | 4.65 | < 4.48 | 4.69 | < 4 | 4.56 | 4.88 | < 4 | < 4 | – | < 4 | – | 4.67 | < 4 | 4.71 | < 4.48 | 4.43 | < 4.48 | 4.49 | < 4
O=C(O)c1ccc(-c2c[nH]c3ncc(-c4ccccc4)cc23)cc1C1CCCC1 | 5.97 | < 4.18 | < 4.48 | < 4.18 | < 4.48 | < 4.18 | < 4.18 | < 4.18 | < 4.18 | 5.15 | 5.13 | < 4.18 | < 4.18 | < 4.48 | 6.1 | < 4.48 | 4.79 | 5.8 | < 4.48 | < 4.18
O=C1C(Cl)=C(NCCN2CCOCC2)C(=O)c2ncccc21 | 5.57 | 5.34 | 5.81 | 5.56 | 5.8 | 6.15 | 5.72 | 5.36 | 5.97 | 6.27 | 5.76 | 5.14 | 5.27 | 5.59 | 5.96 | 5.76 | 6.5 | 5.26 | 5.62 | 5.38
Cn1c(=O)n(-c2ccc(C(C)(C)C#N)cc2)c2c3cc(-c4cnc5ccccc5c4)ccc3ncc21 [BEZ235] | – | < 4.48 | 6.59 | 6.65 | < 4.48 | < 4.48 | 7.2 | 6.33 | 7.24 | 6.8 | 6.33 | < 4.48 | 6.68 | 6.79 | 6.49 | 7.44 | < 4.48 | 6.67 | 5.51 | < 4.48
CN(C)C/C=C/C(=O)Nc1cc2c(Nc3ccc(F)c(Cl)c3)ncnc2cc1O[C@H]1CCOC1 [BIBW2992] | 7.22 | 5.63 | – | 8.23 | 5.87 | 5.93 | 8.53 | 6.56 | 5.86 | 5.65 | 7.06 | 5.51 | 8.21 | 5.86 | 6.79 | 5.59 | 5.46 | 5.95 | 5.47 | 5.45
O=c1cc(-c2ccccc2)oc2cc(O)c(O)c(O)c12 [Baicalein] | < 3.78 | < 3.78 | 4.38 | 4.3 | 4.64 | 4.73 | 4.09 | 4.33 | 4.3 | 4.19 | 4.78 | 4.75 | < 3.78 | < 3.78 | 4.55 | 3.82 | – | 4.08 | 4.42 | 4
COc1cc(Nc2c(C#N)cnc3cc(OCCCN4CCN(C)CC4)c(OC)cc23)c(Cl)cc1Cl [Bosutinib] | 6.26 | 5.27 | 5.67 | 5.71 | 5.95 | 5.93 | 5.97 | 5.76 | 5.3 | 5.66 | 5.99 | 5.55 | 5.9 | 5.73 | 6.12 | 5.86 | – | 5.88 | 5.85 | < 4.48
CSCC[C@H](NC(=O)[C@H](Cc1ccccc1)NC[C@@H](NC[C@@H](N)CS)C(C)C)C(=O)O [FTase inhibitor I] | < 4.18 | < 4.48 | < 4.48 | < 4.18 | < 4.18 | < 4.18 | < 4.18 | < 4.18 | < 4.48 | < 4.48 | < 4.18 | < 4.18 | < 4.18 | < 4.18 | < 4.18 | 5 | – | < 4.48 | 4.93 | < 4.18
Cc1cncc2cccc(S(=O)(=O)N3CCCN(C(=O)CN)C[C@@H]3C)c12 [Glycyl H1152] | < 4.18 | < 4.18 | 5.14 | < 4.18 | 5.01 | 5.05 | 4.77 | 5.21 | 5.62 | 6.28 | 4.9 | 4.58 | 4.65 | 5.03 | 5.15 | 5.76 | – | 5.31 | 5.1 | < 4.18
CCCCCN(C)CCC(O)(P(=O)(O)O)P(=O)(O)O [Ibandronate sodium] | 3.62 | 3.67 | 3.74 | 3.98 | 4.53 | 4.89 | 5.12 | 4.21 | 4.92 | 3.9 | 3.73 | 4.21 | 4.83 | 4.29 | 4.29 | 4.37 | – | 4.27 | 4.47 | 3.92
Cc1[nH]c2ccccc2c1CCNCc1ccc(/C=C/C(=O)NO)cc1 [LBH589] | 6.99 | 6.72 | 6.98 | 7.46 | 6.91 | 6.56 | 7.23 | 6.81 | 7.16 | – | 6.35 | 6.68 | 7.46 | 7.66 | 6.62 | 6.88 | 7.11 | 6.57 | 6.83 | 6.88
CS(=O)(=O)CCNCc1ccc(-c2ccc3ncnc(Nc4ccc(OCc5cccc(F)c5)c(Cl)c4)c3c2)o1 [Lapatinib] | 5.24 | < 4.78 | 6.4 | 6.4 | < 4.78 | < 4.78 | 6.61 | 5.47 | < 4.78 | – | – | < 4.78 | 5.33 | < 4.78 | 4.82 | < 4.78 | < 4.78 | 4.86 | < 4.78 | < 4.78
NS(=O)(=O)c1ccc(Nc2nc(OCC3CCCCC3)c3[nH]cnc3n2)cc1 [NU6102] | 5.39 | – | 4.64 | 4.79 | 4.6 | 5.03 | 4.54 | 4.79 | 4.84 | 4.56 | 4.8 | – | 4.58 | 4.58 | 5.42 | 4.9 | 5.02 | 5.1 | 5.27 | 4.43
CC(C)[C@H](CO)Nc1nc(Nc2cccc(Cl)c2)c2ncn(C(C)C)c2n1 [Purvalanol A] | 5.52 | 4.15 | 4.39 | < 3.78 | < 3.78 | < 3.78 | < 3.78 | 4.7 | 4.43 | – | 4.15 | < 3.78 | < 3.78 | < 3.78 | 5.09 | < 3.78 | 4.69 | 4.91 | 4.79 | < 3.78
CO[C@H]1C[C@@H]2CC[C@@H](C)[C@@](O)(O2)C(=O)C(=O)N2CCCC[C@H]2C(=O)O[C@H]([C@H](C)C[C@@H]2CC[C@@H](O)[C@H](OC)C2)CC(=O)[C@H](C)/C=C(\C)[C@@H](O)[C@@H](OC)C(=O)[C@H](C)C[C@H](C)/C=C/C=C/C=C/1C [Rapamycin] | < 4.48 | 5.12 | 7.62 | 7.62 | 5.33 | 4.84 | 8.36 | 6.7 | 8.79 | – | 7.08 | 5.78 | 6.22 | 8.69 | 5.56 | 7.34 | 6.04 | 4.86 | 8.52 | 5.65
CNC(=O)c1cc(Oc2ccc(NC(=O)Nc3ccc(Cl)c(C(F)(F)F)c3)cc2)ccn1 [Sorafenib] | 5.48 | 4.36 | 3.94 | 4.16 | 4.08 | 4.32 | 4 | 4.27 | 4.83 | – | 4.62 | 3.84 | 4.22 | 3.96 | 4.55 | 4.66 | 5.83 | 5 | 5.77 | 4.38
